# US20080274097A1, “BOOSTER FOR THERAPY OF DISEASES WITH ULTRASOUND AND PHARMACEUTICAL LIQUID COMPOSITION CONTAINING THE SAME” (priority 1991, published 2008)
# System: artificial thrombosis
# Assay: Fibrinolysis of artificial thrombosis (Chandler's method) with ultrasonic catheter
# Set-up: species or system human
# Conditions: for time for achieving 20% fibrinolysis: FIG. 4, thrombosis from blood of one person, urokinase 1200 IU/ml
# Experimental: An artificial thrombosis was formed by Chandler's method. Blood (1 ml) that was collected from healthy humans (two persons) was entered into a flexible tube (inside diameter 3 mm, length 265 mm) and thereto was added calcium chloride, and then the tube was made a loop like shape, which was rotated at 12 rpm for 20 minutes to give an artificial thrombosis model.
# A ceramic ultrasonic element (width 2 mm, length 5 mm, thickness 1 mm) was inserted into the tip of a catheter (diameter 2 mm), and an oscillating element was connected to an oscillator provided outside with a fine connector passed through the catheter. A fine tube for pouring a test solution was provided at an opening opposite to the opening of the catheter end.
# The artificial thrombosis prepared above was added to a test tube together with blood, and the ultrasonic catheter was inserted into the test tube so that the end of the catheter was set close to the portion of the artificial thrombosis (at a distance of about 5 mm), and to the test tube a mixture of urokinase and a booster prepared in Example 1 was added at a rate of 1 ml per minute, wherein urokinase (concentration 1200 IU/ml) and the booster were mixed immediately before pouring at a mixing ration of 1:1 by weight. The mixture was refluxed while keeping the volume of the test solution at a constant level by removing excess volume of the solution by suction. The ultrasound (170 KHz) was exposed to the mixture by a pulse method (exposed for 2 seconds and stopped for 4 seconds) for 2 minutes (total exposing time 40 seconds). After the exposure, the ultrasonic catheter was removed from the test tube, and the mixture was incubated at 37 degrees C. for 5 to 120 minutes, washed with a physiological saline solution several times and dried overnight. Thereafter, the dried mixture was weighed. As a control, the above was repeated by using only a physiological saline solution.
# The rate of fibrinolysis was calculated by the following equation: […]
# The results are shown in the accompanying FIGS. 4 and 5 wherein there are shown in average of twice tests.
substance,measurement,setting,value
urokinase,time for achieving 20% fibrinolysis,"with exposure of ultrasound (170 KHz, pulse, 2 minutes)",30 min
same,time for achieving 20% fibrinolysis,without exposure of ultrasound,45 min
same,treatment time at which 50% fibrinolysis was achieved,"FIG. 5, thrombosis from blood of another person, with exposure of ultrasound, energy reduced by 15%",60 min
